Values joined by “and” are separate entries in the source; they are usually repeats but may differ in a detail not shown here. Equal values may be shown once.
Details: 513.09 K, Fluid (supercritical or subcritical phases), Coaxial cylinder method

CCCCCC [hexane]
Details | thermal conductivity
3280 kPa | 0.07438 W/m/K
3282 kPa | 0.07445 W/m/K
3284 kPa | 0.07451 W/m/K
3287 kPa | 0.07452 W/m/K
3288 kPa | 0.07459 W/m/K
3290 kPa | 0.07463 W/m/K
3292 kPa | 0.07463 W/m/K
3295 kPa | 0.07469 W/m/K
3298 kPa | 0.07463 W/m/K
3303 kPa | 0.07463 W/m/K
3306 kPa | 0.07437 W/m/K
3310 kPa | 0.07332 W/m/K
3312 kPa | 0.07332 W/m/K
3313 kPa | 0.07228 W/m/K
3318 kPa | 0.07228 W/m/K
3319 kPa | 0.07228 W/m/K
3322 kPa | 0.07228 W/m/K
3326 kPa | 0.07228 W/m/K
3330 kPa | 0.07228 W/m/K
3331 kPa | 0.07228 W/m/K
3332 kPa | 0.07228 W/m/K
3334 kPa | 0.07228 W/m/K
3336 kPa | 0.07228 W/m/K
3340 kPa | 0.07228 W/m/K
3343 kPa | 0.07197 W/m/K
3345 kPa | 0.07087 W/m/K
3346 kPa | 0.07087 W/m/K
3347 kPa | 0.07087 W/m/K
3350 kPa | 0.07087 W/m/K
3360 kPa | 0.07087 W/m/K
3370 kPa | 0.07087 W/m/K
3380 kPa | 0.07087 W/m/K
3390 kPa | 0.07087 W/m/K
3400 kPa | 0.06942 W/m/K
3420 kPa | 0.06942 W/m/K
3430 kPa | 0.06942 W/m/K
3450 kPa | 0.06824 W/m/K and 0.06843 W/m/K
3500 kPa | 0.06824 W/m/K
3600 kPa | 0.06824 W/m/K
3700 kPa | 0.06824 W/m/K
3800 kPa | 0.06824 W/m/K
3900 kPa | 0.06824 W/m/K
4000 kPa | 0.07056 W/m/K
4100 kPa | 0.0708 W/m/K and 0.07056 W/m/K
4200 kPa | 0.07086 W/m/K
4300 kPa | 0.07086 W/m/K
4600 kPa | 0.07116 W/m/K
4700 kPa | 0.07125 W/m/K
4800 kPa | 0.07144 W/m/K
4900 kPa | 0.07165 W/m/K
5000 kPa | 0.07187 W/m/K
5100 kPa | 0.07209 W/m/K
5200 kPa | 0.07225 W/m/K
5300 kPa | 0.0725 W/m/K
5400 kPa | 0.07269 W/m/K
5500 kPa | 0.07288 W/m/K
5600 kPa | 0.07304 W/m/K
5700 kPa | 0.07323 W/m/K
5800 kPa | 0.07339 W/m/K
5900 kPa | 0.07359 W/m/K
6000 kPa | 0.07375 W/m/K
6100 kPa | 0.07391 W/m/K
6200 kPa | 0.07408 W/m/K
6300 kPa | 0.07424 W/m/K
6400 kPa | 0.07438 W/m/K
6500 kPa | 0.07454 W/m/K
6600 kPa | 0.07471 W/m/K
6700 kPa | 0.07488 W/m/K
6800 kPa | 0.07501 W/m/K
6900 kPa | 0.07515 W/m/K
7000 kPa | 0.07528 W/m/K
7100 kPa | 0.07542 W/m/K
7150 kPa | 0.07549 W/m/K
7200 kPa | 0.07556 W/m/K
7211 kPa | 0.07556 W/m/K
7292 kPa | 0.07569 W/m/K
7496 kPa | 0.07597 W/m/K
7501 kPa | 0.07597 W/m/K
7517 kPa | 0.07597 W/m/K
7533 kPa | 0.07599 W/m/K
7800 kPa | 0.07638 W/m/K
8100 kPa | 0.07676 W/m/K
8200 kPa | 0.07687 W/m/K

Source: the NIST ThermoML archive (doi:10.1016/j.fluid.2018.10.006)
